# Measured values taken from patent US20260191838A1, “COMBINATIONS COMPRISING A MENIN-MLL INHIBITOR AND A BCL-2 INHIBITOR” (JANSSEN PHARMACEUTICA NV, priority 2022, published 2026).
# System: OCI-AML3 cells
# Test: Proliferation (spheroid) assay, OCI-AML3
# Format: cell-based
# Details: Homo sapiens, OCI-AML-3, 192 h; 8 days; read-out: spheroid assay_OCI-AML3 IC50
# Description: The anti-proliferative effect of menin/MLL protein/protein interaction inhibitor test compounds was assessed in human leukemia cell lines. The cell line MOLM14 harbors a MLL translocation and expresses the MLL fusion protein MLL-AF9, respectively, as well as the wildtype protein from the second allele. OCI-AML3 cells that carry the NPM1c gene mutation were also tested. […] KO-52 was used as a control cell line containing two MLL (KMT2A) wildtype alleles in order to exclude compounds that display general cytotoxic effects.
# MOLM14 cells were cultured in RPMI-1640 (Sigma Aldrich) supplemented with 10% heat-inactivated fetal bovine serum (HyClone), 2 mM L-glutamine (Sigma Aldrich) and 50 μg/ml gentamycin (Gibco). KO-52 and OCI-AML3 cell lines were propagated in alpha-MEM (Sigma Aldrich) supplemented with 20% heat-inactivated fetal bovine serum (HyClone), 2 mM L-glutamine (Sigma Aldrich) and 50 μg/ml gentamycin (Gibco).
# In order to assess the anti-proliferative effects, 200 MOLM14 cells, 200° C. […] Spheroid like growth was measured in real-time by live-cell imaging (IncuCyteZOOM, Essenbio, 4× objective) acquiring images at day 8. Confluence (%) as a measure of spheroid size was determined using an integrated analysis tool.
# In order to determine the effect of the test compounds over time, the confluence in each well as a measure of spheroid size, was calculated. […]
smiles,measurement,value
CC(=O)N1CCC(CN2CC[C@@H](Cc3cn(-c4ccc(F)cc4C(=O)N(C)C(C)C)c4cncc(C)c34)C2)CC1 [Compound 51],IC50,24 nM
